Laboratory results: patent publication US10076519B2 (CYTOKINETICS, INC., priority 2010, dated 2018)

System: rabbit skeletal myofibrils (fast skeletal myofibrils)
Assay: Activation of fast skeletal myofibrils (PUMA assay, PK/LDH-coupled ATPase at pCa25)
Format: biochemical
Details: procedure of Example 39
Procedure, shortened: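 Detergent-washed rabbit psoas myofibrils (~90% fast fibres, calcium-regulated) assayed at calcium giving 25% of maximal ATPase rate (pCa25). ADP turnover coupled via pyruvate kinase/lactate dehydrogenase to NADH oxidation, read at 340 nm. Buffer 12 mM PIPES, 2 mM MgCl2, 1 mM DTT, pH 6.8; AC1.4 values derived.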

SMILES	Mean AC1.4 (median AC1.4 class)	Mean AC1.4 (median AC1.4 reported as class)
CC(C)(O)C(=O)NCc1cnc(-c2ccc(NCC3(c4ncccc4F)CCC3)nn2)s1 [N-({2-[6-({[(3-fluoro(2-pyridyl))cyclobutyl]methyl}ami-no)pyridazin-3-yl](1,3-thiazol-5-yl)}methyl)-2-hydroxy-2-methylpropanamide]	A (A=<1 uM)	
O=C(NCc1cnc(-c2ccc(NCC3(c4ncccc4F)CCC3)nn2)s1)c1ncc[nH]1 [N-({2-[6-({[(3-fluoro(2-pyridyl))cyclobutyl]methyl}ami-no)pyridazin-3-yl](1,3-thiazol-5-yl)}methyl)imidazol-2-ylcarboxamide]	A (A=<1 uM)	
COC(=O)NCc1cnc(-c2ccc(NCC3(c4ncccc4F)CCC3)nn2)s1 [N-({2-[6-({[(3-fluoro(2-pyridyl))cyclobutyl]methyl}ami-no)pyridazin-3-yl](1,3-thiazol-5-yl)}methyl)methoxycarboxamide]	B (B=1-10 uM)	
O=C(NCc1cnc(-c2ccc(NCC3(c4ncccc4F)CCC3)nn2)s1)c1cn[nH]c1 [N-({2-[6-({[(3-fluoro(2-pyridyl))cyclobutyl]methyl}ami-no)pyridazin-3-yl](1,3-thiazol-5-yl)}methyl)pyrazol-4-ylcarboxamide]	A (A=<1 uM)	
O=C(NCc1cnc(-c2ccc(NCC3(c4ncccc4F)CCC3)nn2)s1)c1ccn[nH]1 [N-({2-[6-({[(3-fluoro(2-pyridyl))cyclobutyl]methyl}ami-no)pyridazin-3-yl](1,3-thiazol-5-yl)}methyl)pyrazol-5-ylcarboxamide]	A (A=<1 uM)	
O=C(NCc1cnc(-c2ccc(NCC3(c4ncccc4F)CCC3)nn2)s1)C1(NCc2ccccc2)COC1 [N-({2-[6-({[(3-fluoro(2-pyridyl))cyclobutyl]methyl}ami-no)pyridazin-3-yl](1,3-thiazol-5-yl)}methyl){3-[benzylamino]oxetan-3-yl}carboxamide]	A (A=<1 uM)	

Other lines, results leading:

Mean AC1.4 (median AC1.4 class)	Mean AC1.4 (median AC1.4 reported as class)	SMILES
A (A=<1 uM)		O=C(NCc1cnc(-c2ccc(NCC3(c4ncccc4F)CCC3)nn2)s1)c1cnc(O)[nH]1 [N-({2-[6-({[(3-fluoro(2-pyridyl))cyclobutyl]methyl}ami-no)pyridazin-3-yl](1,3-thiazol-5-yl)}methyl)(2-hydroxyimidazol-5-yl)carboxamide]
	B (B=1-10 uM)	CN(Cc1cnc(-c2ccc(NCC3(c4ncccc4F)CCC3)nn2)s1)C(=O)CO [N-({2-[6-({[(3-fluoro(2-pyridyl))cyclobutyl]methyl}ami-no)pyridazin-3-yl](1,3-thiazol-5-yl)}methyl)-2-hydroxy-N-methylacetamide]
A (A=<1 uM)		O=C(CO)NCc1cnc(-c2ccc(NCC3(c4ncccc4F)CCC3)nn2)s1 [N-({2-[6-({[(3-fluoro(2-pyridyl))cyclobutyl]methyl}ami-no)pyridazin-3-yl](1,3-thiazol-5-yl)}methyl)-2-hydroxyacetamide]
	A (A=<1 uM)	CNC(C)(C)C(=O)NCc1cnc(-c2ccc(NCC3(c4ncccc4F)CCC3)nn2)s1 [N-({2-[6-({[(3-fluoro(2-pyridyl))cyclobutyl]methyl}ami-no)pyridazin-3-yl](1,3-thiazol-5-yl)}methyl)-2-methyl-2-(methylamino)propanamide]
A (A=<1 uM)		CC(C)C(=O)NCc1cnc(-c2ccc(NCC3(c4ncccc4F)CCC3)nn2)s1 [N-({2-[6-({[(3-fluoro(2-pyridyl))cyclobutyl]methyl}ami-no)pyridazin-3-yl](1,3-thiazol-5-yl)}methyl)-2-methylpropanamide]
A (A=<1 uM)		O=C(NCc1cnc(-c2ccc(NCC3(c4ncccc4F)CCC3)nn2)s1)c1cnc[nH]1 [N-({2-[6-({[(3-fluoro(2-pyridyl))cyclobutyl]methyl}ami-no)pyridazin-3-yl](1,3-thiazol-5-yl)}methyl)imidazol-5-ylcarboxamide]
A (A=<1 uM)		CC(=O)NCc1cnc(-c2ccc(NCC3(c4ncccc4F)CCC3)nn2)s1 [N-({2-[6-({[(3-fluoro-2-pyridyl)cyclobutyl]methyl}ami-no)pyridazin-3-yl]-1,3-thiazol-5-yl}methyl)acetamide]
